In patent US8026281B2, “Treating metabolic syndrome with fenofibrate” (Lupin Atlantis Holdings, S.A., priority 2004, dated 2011):
Values belong to the compound of their own block, whether it stands above or below them.

Legend:
[1] = tested on: subjects with hypertriglyceridemia and metabolic syndrome; assay: Phase III placebo-controlled study of 130 mg fenofibrate, with and without food: prevalence of metabolic syndrome; details: for prevalence of metabolic syndrome at end of treatment: 130 mg daily
Method: Objectives: A primary outcome variable was the difference in the prevalence of metabolic syndrome between the group treated with 130 mg of fenofibrate (“the treatment group”) versus the placebo group (“the placebo”). A related outcome variable included the effect of food on fenofibrate efficacy.
Methodology: This was a multicenter, prospective, double-blind, double-dummy, randomized, placebo-controlled, parallel group study of a micronized formulation of fenofibrate at a single daily dose of 130 mg. Subjects took prescription or over-the-counter lipid lowering medications or dietary supplements known to alter lipid levels or other aspects of the lipid profile until week 6 (visit 1). At week 6, subjects were instructed to follow the therapeutic lifestyle changes diet, in accordance with the Food and Drug Administration guidelines for clinical evaluations of lipid-altering agents.
Also at week 6, qualifying subjects were stratified by triglyceride level and randomized in a double-blind fashion to one of three groups, the first two of which constituted the treatment group and the third group constituted the placebo: A) 1 fenofibrate capsule (130 mg) with food and 1 placebo capsule without food; B) 1 fenofibrate capsule (130 mg) without food (three hours after a meal) and 1 placebo capsule with food; and C) placebo, 1 placebo capsule with food and 1 placebo capsule without food. […] One capsule was taken with the subjects' evening meal and a second capsule was taken three hours post-meal. The first dosing occurred on the first evening after visit 4. A lipid profile was measured at every visit, and other measurements were taken regularly throughout the study.
Treatment duration was eight weeks.

high-risk patients = details: particularly those with diabetes and insulin resistance; cited from earlier work
[2] = cited from earlier work

food effect ([1]; fenofibrate formulation 130 mg, with food versus without food): does not exhibit a food effect
SMILES: CC(C)OC(=O)C(C)(C)Oc1ccc(C(=O)c2ccc(Cl)cc2)cc1 [fenofibrate, 2-[4-(4-chlorobenzoyl)phenoxy]-2-methyl-propanoic acid, 1-methylethyl ester]
safety and efficacy conclusion ([1]; fenofibrate formulation 130 mg, eight weeks): safe and efficacious
prevalence of metabolic syndrome at end of treatment ([1]; fenofibrate with food group, eight weeks, reduced from 96.3% prevalence): 74.1%
prevalence of metabolic syndrome at end of treatment ([1]; fenofibrate without food group (three hours after a meal), eight weeks, reduced from 97.6% prevalence): 66.7%
decrease in number of subjects having three or more metabolic syndrome criteria ([1]; treatment group (fenofibrate 130 mg once daily, with or without food), eight-week treatment, placebo 12%, chi-square p-value=0.0416): more than 25%
prevalence of metabolic syndrome at end of treatment ([1]; whole treatment group, eight weeks, reduced from 96.9% prevalence, placebo 98.0% to 86.0%): 70.8%

SMILES: Cc1ccc(C)c(OCCCC(C)(C)C(=O)O)c1 [gemfibrozil]
risk for major cardiovascular events (high-risk patients): reduced the risk for major cardiovascular events

SMILES: CC(C)(Oc1ccc(C(=O)c2ccc(Cl)cc2)cc1)C(=O)O [fenofibric acid]
mean concentration in the plasma ([2]; dose of 300 mg per day): ~15000 ng/mL
time of maximum concentration in the plasma after ingestion of the medicinal product ([2]; on average): five
half-life for elimination from the plasma ([2]; plasma): ~20 h
